The text below walks through data of patent US20080161269A1, “Compounds 620” (ASTRAZENECA AB, priority 2006, published 2008).

Molecules are shown by their SMILES. Counter-ions that a name gives are not always drawn.

human β-Secretase, sequence (P56817 22-460): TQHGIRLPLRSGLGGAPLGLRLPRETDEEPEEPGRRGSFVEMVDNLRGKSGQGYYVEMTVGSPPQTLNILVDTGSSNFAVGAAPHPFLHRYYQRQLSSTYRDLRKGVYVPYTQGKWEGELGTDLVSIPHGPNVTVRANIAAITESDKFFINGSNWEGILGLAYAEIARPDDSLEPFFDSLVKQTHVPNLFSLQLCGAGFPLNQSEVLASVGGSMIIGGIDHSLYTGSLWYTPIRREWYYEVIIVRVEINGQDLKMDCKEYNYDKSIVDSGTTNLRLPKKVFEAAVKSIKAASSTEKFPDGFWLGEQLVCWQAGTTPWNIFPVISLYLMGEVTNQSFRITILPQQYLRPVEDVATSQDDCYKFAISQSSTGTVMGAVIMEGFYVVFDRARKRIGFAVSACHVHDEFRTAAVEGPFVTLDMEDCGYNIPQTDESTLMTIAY

The target of this experiment is human β-Secretase (Homo sapiens, UniProt P56817). Description: TR-FRET assay. It counts as biochemical. The settings on record: enzyme (truncated form) 0.3 nM; substrate (Europium)CEVNLDAEFK(Qsy7) 100 nM; pH4.5; 15 minutes at room temperature. The procedure: The enzyme used in the IGEN Cleavage-, Fluorescent-, TR-FRET- and the BiaCore assay is described as follows:
The gene was fused to the Fc domain of IgG1 (affinity tag) and stably cloned into HEK 293 cells. Purified sBACE-Fc is stored in Tris buffer, pH 9.2 and has a purity of 95%.
Dilute the enzyme (truncated form) to 6 μg/mL (stock 1.3 mg/mL) and the substrate (Europium)CEVNLDAEFK(Qsy7) to 200 nM (stock 60 μM) in reaction buffer (NaAcetate, chaps, triton x-100, EDTA pH4.5). The Biomek FX is used for all liquid handling and the enzyme and substrate solutions are kept on ice until they are placed in Biomek FX. Enzyme (9 μl) is added to the plate then 1 μl of compound in dimethylsulphoxide is added, mixed and pre-incubated for 10 minutes. Substrate (10 μl) is then added, mixed and the reaction proceeds in the dark for 15 minutes at room temperature. The reaction is stopped with the addition of Stop solution (7 μl, NaAcetate pH 9). The fluorescence of the product is measured on a Wallac Victor II plate reader with an excitation wavelength of 340 nm and an emission wavelength of 615 nm. The assay is done in a Costar 384 well round bottom, low volume, non-binding surface (Corning #3676). The final concentration of the enzyme is 0.3 nM; the final concentration of substrate is 100 nM (Km of ˜250 nM). The dimethylsulphoxide control defines the 100% activity level and 0% activity is defined by exclusion of the enzyme, only using reaction buffer instead.
Regarding `CN1C(=O)C(c2ccc([Si](C)(C)C)cc2)(c2cccc(-c3cnccc3C#N)c2)N=C1N` (stereo not shown) [Example 21, 3-[3-[2-amino-1-methyl-5-oxo-4-(4-trimethylsilylphenyl)imidazol-4-yl]phenyl]pyridine-4-carbonitrile Acetic Acid Salt], the half-maximal inhibitory concentration (IC50) (as a rule, the midpoint of a concentration-inhibition curve) turned out to be 460 nM.
In turn, `CN1C(=O)C(c2cccc(-c3cnccn3)c2)(c2cccc([Si](C)(C)C)c2)N=C1N` (stereo not shown) [Example 32, 2-amino-1-methyl-4-(3-(pyrazin-2-yl)phenyl)-4-(3-(trimethylsilyl)phenyl)-1H-imidazol-5(4H)-one] showed a half-maximal inhibitory concentration (IC50) of 86 nM.
The molecule `COc1cccc(-c2cccc(C3(c4cccc([Si](C)(C)C)c4)N=C(N)N(C)C3=O)c2)n1` (stereo not shown) [Example 31, 2-amino-4-(3-(6-methoxypyridin-2-yl)phenyl)-1-methyl-4-(3-(trimethylsilyl)phenyl)-1H-imidazol-5(4H)-one] gave an IC50 of 1530 nM.
With `COc1cccc(-c2cccc(C3(c4ccc([Si](C)(C)C)cc4)N=C(N)N(C)C3=O)c2)c1` (stereo not shown) [Example 12, 2-Amino-5-(3′-methoxybiphenyl-3-yl)-3-methyl-5-[4-(trimethylsilyl)phenyl]-3,5-dihydro-4H-imidazol-4-one], half-maximal inhibition (IC50) required 84 nM.
In turn, `CN1C(=O)C(c2ccc([Si](C)(C)C)cc2)(c2cccc(-c3cncc(F)c3)c2)N=C1N` (stereo not shown) [Example 18, 2-amino-5-[3-(5-fluoropyridin-3-yl)phenyl]-3-methyl-5-(4-trimethylsilylphenyl)imidazol-4-one acetic acid salt] yielded a concentration for half-maximal inhibition (IC50) of 180 nM.
The molecule `CN1C(=O)C(c2ccc([Si](C)(C)C)cc2)(c2cccc(-c3cncnc3)c2)N=C1N` (single isomer, unassigned) [Example 15 (isomer 1), 2-amino-3-methyl-5-(3-pyrimidin-5-ylphenyl)-5-[4-(trimethylsilyl)phenyl]-3,5-dihydro-4H-imidazol-4-one] showed a concentration for half-maximal inhibition (IC50) of 41 nM.
`CN1C(=O)C(c2cccc(-c3ccc(F)nc3)c2)(c2cccc([Si](C)(C)C)c2)N=C1N` (stereo not shown) [Example 28, 2-amino-4-(3-(6-fluoropyridin-3-yl)phenyl)-1-methyl-4-(3-(trimethylsilyl)phenyl)-1H-imidazol-5(4H)-one] came in with an IC50 of 278 nM.
In turn, `CN1C(=O)C(c2ccc([Si](C)(C)C)cc2)(c2cccc(-c3cnn(C)c3)c2)N=C1N` (stereo not shown) [Example 22, 2-amino-3-methyl-5-[3-(1-methylpyrazol-4-yl)phenyl]-5-(4-trimethylsilylphenyl)imidazol-4-one Acetic Acid Salt] yielded an IC50 of 2740 nM.
`CN1C(=O)C(c2ccc([Si](C)(C)C)cc2)(c2cccc(-c3ccc(F)nc3)c2)N=C1N` (stereo not shown) [Example 20, 2-amino-5-[3-(6-fluoropyridin-3-yl)phenyl]-3-methyl-5-(4-trimethylsilylphenyl)imidazol-4-one Acetic Acid Salt] came in with an IC50 of 437 nM.
`CN1C(=O)C(c2ccc([Si](C)(C)C)cc2)(c2cccc(-c3cccnc3F)c2)N=C1N` (stereo not shown) [Example 13, 2-Amino-5-[3-(2-fluoropyridin-3-yl)phenyl]-3-methyl-5-[4-(trimethylsilyl)phenyl]-3,5-dihydro-4H-imidazol-4-one] yielded a 50% inhibitory concentration (IC50) of 81 nM.
`CN1C(=O)C(c2ccc([Si](C)(C)C)cc2)(c2cccc(-c3cncnc3)c2)N=C1N` (racemic) [Example 14, 2-Amino-3-methyl-5-(3-pyrimidin-5-ylphenyl)-5-[4-(trimethylsilyl)phenyl]-3,5-dihydro-4H-imidazol-4-one] yielded a concentration for half-maximal inhibition (IC50) of 107 nM.
`CN1C(=O)C(c2cccc(-c3cncnc3)c2)(c2cccc([Si](C)(C)C)c2)N=C1N` (stereo not shown) [Example 26, 2-amino-1-methyl-4-(3-(pyrimidin-5-yl)phenyl)-4-(3-(trimethylsilyl)phenyl)-1H-imidazol-5(4H)-one]: the midpoint of inhibition, the IC50, lay at 135 nM.
The result for `Cc1ncc(-c2cccc(C3(c4ccc([Si](C)(C)C)cc4)N=C(N)N(C)C3=O)c2)cn1` (stereo not shown) [Example 23, 2-amino-3-methyl-5-[3-(2-methylpyrimidin-5-yl)phenyl]-5-(4-trimethylsilylphenyl)imidazol-4-one acetic acid salt] reads 2260 nM.
In turn, `COc1cncc(-c2cccc(C3(c4ccc([Si](C)(C)C)cc4)N=C(N)N(C)C3=O)c2)c1` (stereo not shown) [Example 16, 2-amino-5-[3-(5-methoxypyridin-3-yl)phenyl]-3-methyl-5-(4-trimethylsilylphenyl)imidazol-4-one acetic acid salt] returned a half-maximal inhibitory concentration (IC50) of 23 nM.
The molecule `CN1C(=O)C(c2ccc([Si](C)(C)C)cc2)(c2cccc(-c3cncnc3)c2)N=C1N` (single isomer, unassigned) [Example 15 (isomer 2), 2-amino-3-methyl-5-(3-pyrimidin-5-ylphenyl)-5-[4-(trimethylsilyl)phenyl]-3,5-dihydro-4H-imidazol-4-one] returned an IC50 greater than 10000 nM.
For `CN1C(=O)C(c2ccc([Si](C)(C)C)cc2)(c2cccc(-c3cccnc3)c2)N=C1N` (stereo not shown) [Example 17, 2-amino-3-methyl-5-(3-pyridin-3-ylphenyl)-5-(4-trimethylsilylphenyl)imidazol-4-one acetic acid salt], the half-maximal inhibitory concentration (IC50) came out at 118 nM.
`CN1C(=O)C(c2cccc(-c3cccnc3F)c2)(c2cccc([Si](C)(C)C)c2)N=C1N` (stereo not shown) [Example 30, 2-amino-4-(3-(2-fluoropyridin-3-yl)phenyl)-1-methyl-4-(3-(trimethylsilyl)phenyl)-1H-imidazol-5(4H)-one] yielded a half-inhibitory concentration (IC50) of 182 nM.
Molecule `CN1C(=O)C(c2ccc([Si](C)(C)C)cc2)(c2cccc(-c3cnc(F)nc3)c2)N=C1N` (stereo not shown) [Example 25, 2-amino-5-[3-(2-fluoropyrimidin-5-yl)phenyl]-3-methyl-5-(4-trimethylsilylphenyl)imidazol-4-one] displayed a concentration for half-maximal inhibition (IC50) of 460 nM.
In turn, `CN1C(=O)C(c2cccc(-c3cccnc3)c2)(c2cccc([Si](C)(C)C)c2)N=C1N` (stereo not shown) [Example 29, 2-amino-1-methyl-4-(3-(pyridin-3-yl)phenyl)-4-(3-(trimethylsilyl)phenyl)-1H-imidazol-5(4H)-one] showed a half-inhibitory concentration (IC50) of 202 nM.
`CN1C(=O)C(c2cccc(-c3cncc(Cl)c3)c2)(c2cccc([Si](C)(C)C)c2)N=C1N` (stereo not shown) [Example 27, 2-amino-4-(3-(5-chloropyridin-3-yl)phenyl)-1-methyl-4-(3-(trimethylsilyl)phenyl)-1H-imidazol-5(4H)-one]: the IC50 was found to be 163 nM.
The result for `CN1C(=O)C(c2ccc([Si](C)(C)C)cc2)(c2cccc(-c3cnccn3)c2)N=C1N` (stereo not shown) [Example 24, 2-amino-3-methyl-5-(3-pyrazin-2-ylphenyl)-5-(4-trimethylsilylphenyl)imidazol-4-one] reads 80 nM.
On to `CN1C(=O)C(c2ccc([Si](C)(C)C)cc2)(c2cccc(-c3cncc(C#N)c3)c2)N=C1N` (stereo not shown) [Example 19, 5-[3-[2-amino-1-methyl-5-oxo-4-(4-trimethylsilylphenyl)imidazol-4-yl]phenyl]pyridine-3-carbonitrile acetic acid salt], for which half-maximal inhibition (IC50) was put at 118 nM.
